In PubChem BioAssay (NCI):
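Step 1: Grow cells in 96-well plates. Step 2: Expose to compound for 48 hours at 5 concentrations. Step 3: Interpolate endpoints linearly; if unreached, use highest concentration. At the TGI there is no net growth.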

Tests used:
Test in all cases: growth of human tumour cells (NCI), 48 h
[1] = test system: 786-0 renal
[2] = test system: A498 renal
[3] = test system: A549 NSCLC
[4] = test system: ACHN renal
[5] = test system: BT-549 breast
[6] = test system: CAKI-1 renal
[7] = test system: CCRF-CEM leukemia
[8] = test system: COLO 205 colon
[9] = test system: DU-145 prostate
[10] = test system: EKVX NSCLC
[11] = test system: HCC-2998 colon
[12] = test system: HCT-116 colon
[13] = test system: HCT-15 colon
[14] = test system: HL-60(TB) leukemia
[15] = test system: HOP-62 NSCLC
[16] = test system: HOP-92 NSCLC
[17] = test system: HS 578T breast
[18] = test system: HT29 colon
[19] = test system: IGROV1 ovarian
[20] = test system: K-562 leukemia
[21] = test system: KM12 colon
[22] = test system: LOX IMVI melanoma
[23] = test system: M14 melanoma
[24] = test system: MALME-3M melanoma
[25] = test system: MCF7 breast
[26] = test system: MDA-MB-231 breast
[27] = test system: MDA-MB-435
[28] = test system: MDA-N
[29] = test system: NCI-H226 lung
[30] = test system: NCI-H23 lung
[31] = test system: NCI-H460 lung
[32] = test system: NCI-H522 lung
[33] = test system: NCI/ADR-RES ovarian
[34] = test system: OVCAR-3 ovarian
[35] = test system: OVCAR-5 ovarian
[36] = test system: OVCAR-8 ovarian
[37] = test system: PC-3 prostate
[38] = test system: RPMI-8226 leukemia
[39] = test system: RXF 393 renal
[40] = test system: SF-268 CNS
[41] = test system: SF-295 CNS
[42] = test system: SF-539 CNS
[43] = test system: SK-MEL-2 melanoma
[44] = test system: SK-MEL-28 melanoma
[45] = test system: SK-MEL-5 melanoma
[46] = test system: SK-OV-3 ovarian
[47] = test system: SNB-19 CNS
[48] = test system: SNB-75 CNS
[49] = test system: SR leukemia
[50] = test system: SW-620 colon
[51] = test system: T-47D breast
[52] = test system: TK-10 renal
[53] = test system: U251 CNS
[54] = test system: UACC-257 melanoma
[55] = test system: UACC-62 melanoma
[56] = test system: UO-31 renal
[57] = test system: MOLT-4 leukemia
[58] = test system: OVCAR-4 ovarian
[59] = test system: SN12C renal

With `CC1CN=C(Nc2ccc(F)c(Cl)c2)S1` (stereo unspecified) the TGI [1] was greater than 100 µM, the TGI [2] was greater than 100 µM and the TGI [3] was greater than 100 µM. For the same compound, the TGI [4] was greater than 100 µM, the TGI [5] was greater than 100 µM and the TGI [6] was greater than 100 µM. It also gave a TGI [7] greater than 100 µM, a TGI [8] greater than 100 µM and a TGI [9] greater than 100 µM. For the same compound, the TGI [10] was greater than 100 µM, the TGI [11] was greater than 100 µM and the TGI [12] was greater than 100 µM. It also gave a TGI [13] greater than 100 µM, a TGI [14] greater than 100 µM and a TGI [15] greater than 100 µM. It also gave a TGI [16] greater than 100 µM, a TGI [17] greater than 100 µM and a TGI [18] greater than 100 µM. It also gave a TGI [19] greater than 100 µM, a TGI [20] greater than 100 µM and a TGI [21] greater than 100 µM. It also gave a TGI [22] greater than 100 µM, a TGI [23] greater than 100 µM and a TGI [24] greater than 100 µM. It also gave a TGI [25] greater than 100 µM, a TGI [26] greater than 100 µM and a TGI [27] greater than 100 µM. For the same compound, the TGI [28] was greater than 100 µM, the TGI [29] was greater than 100 µM and the TGI [30] was greater than 100 µM. The TGI [31] was greater than 100 µM, the TGI [32] was greater than 100 µM and the TGI [33] was greater than 100 µM. The TGI [34] was greater than 100 µM, the TGI [35] was greater than 100 µM and the TGI [36] was greater than 100 µM. It also gave a TGI [37] greater than 100 µM, a TGI [38] greater than 100 µM and a TGI [39] greater than 100 µM. For the same compound, the TGI [40] was greater than 100 µM, the TGI [41] was greater than 100 µM and the TGI [42] was greater than 100 µM. The TGI [43] was greater than 100 µM, the TGI [44] was greater than 100 µM and the TGI [45] was greater than 100 µM. It also gave a TGI [46] greater than 100 µM, a TGI [47] greater than 100 µM and a TGI [48] greater than 100 µM. It also gave a TGI [49] greater than 100 µM, a TGI [50] greater than 100 µM and a TGI [51] greater than 100 µM. The TGI [52] was greater than 100 µM, the TGI [53] was greater than 100 µM and the TGI [54] was greater than 100 µM. The TGI [55] was greater than 100 µM and the TGI [56] was 91.8 µM.
For `CSc1c(C#N)c(S)[nH]c(=O)c1C#N`, the TGI [1] was greater than 100 µM, the TGI [2] was 98 µM and the TGI [3] was greater than 100 µM. For the same compound, the TGI [5] was greater than 100 µM, the TGI [6] was greater than 100 µM and the TGI [7] was greater than 100 µM. It also gave a TGI [8] greater than 100 µM, a TGI [9] greater than 100 µM and a TGI [10] greater than 100 µM. For the same compound, the TGI [11] was greater than 100 µM, the TGI [12] was greater than 100 µM and the TGI [13] was greater than 100 µM. For the same compound, the TGI [14] was greater than 100 µM, the TGI [17] was greater than 100 µM and the TGI [18] was greater than 100 µM. For the same compound, the TGI [19] was greater than 100 µM, the TGI [20] was greater than 100 µM and the TGI [21] was greater than 100 µM. It also gave a TGI [22] greater than 100 µM, a TGI [23] greater than 100 µM and a TGI [24] of 51.5 µM. The TGI [25] was greater than 100 µM, the TGI [26] was greater than 100 µM and the TGI [27] was greater than 100 µM. For the same compound, the TGI [28] was greater than 100 µM, the TGI [57] was greater than 100 µM and the TGI [29] was greater than 100 µM. The TGI [30] was greater than 100 µM, the TGI [31] was greater than 100 µM and the TGI [32] was greater than 100 µM. For the same compound, the TGI [33] was greater than 100 µM, the TGI [34] was greater than 100 µM and the TGI [58] was greater than 100 µM. The TGI [35] was greater than 100 µM, the TGI [36] was greater than 100 µM and the TGI [37] was greater than 100 µM. The TGI [38] was greater than 100 µM, the TGI [39] was greater than 100 µM and the TGI [40] was greater than 100 µM. The TGI [42] was greater than 100 µM, the TGI [43] was greater than 100 µM and the TGI [44] was greater than 100 µM. The TGI [45] was 98.9 µM, the TGI [46] was greater than 100 µM and the TGI [59] was greater than 100 µM. For the same compound, the TGI [47] was greater than 100 µM, the TGI [48] was greater than 100 µM and the TGI [49] was greater than 100 µM. The TGI [50] was greater than 100 µM, the TGI [51] was greater than 100 µM and the TGI [52] was greater than 100 µM. For the same compound, the TGI [53] was greater than 100 µM, the TGI [54] was greater than 100 µM and the TGI [55] was greater than 100 µM. For the same compound, the TGI [56] was 87.5 µM.
